Laboratory results from PMC8555866 (Nature chemical biology, 2021).
Structures can show the parent of a compound that is named as a salt.

Key:
[1] = molecular target: wildtype Keap1 (tag-free) (Homo sapiens, UniProt Q14145); assay: Keap1 tracer saturation binding with wildtype Keap1; details: fixed Cora-1-KL9 (5 nM) and wildtype Keap1, one-site binding model
[2] = molecular target: T1, Keap1 (tag-free) (Homo sapiens, UniProt Q14145); assay: Assay-2: inhibitor dose response, full length Keap1; type: binding; details: for activity in Assay-2 (in words): 5 nM Cora-1-KL9, 150 nM CDDO-FITC, 5 nM Keap1
T1 sequence (Q14145 whole entry): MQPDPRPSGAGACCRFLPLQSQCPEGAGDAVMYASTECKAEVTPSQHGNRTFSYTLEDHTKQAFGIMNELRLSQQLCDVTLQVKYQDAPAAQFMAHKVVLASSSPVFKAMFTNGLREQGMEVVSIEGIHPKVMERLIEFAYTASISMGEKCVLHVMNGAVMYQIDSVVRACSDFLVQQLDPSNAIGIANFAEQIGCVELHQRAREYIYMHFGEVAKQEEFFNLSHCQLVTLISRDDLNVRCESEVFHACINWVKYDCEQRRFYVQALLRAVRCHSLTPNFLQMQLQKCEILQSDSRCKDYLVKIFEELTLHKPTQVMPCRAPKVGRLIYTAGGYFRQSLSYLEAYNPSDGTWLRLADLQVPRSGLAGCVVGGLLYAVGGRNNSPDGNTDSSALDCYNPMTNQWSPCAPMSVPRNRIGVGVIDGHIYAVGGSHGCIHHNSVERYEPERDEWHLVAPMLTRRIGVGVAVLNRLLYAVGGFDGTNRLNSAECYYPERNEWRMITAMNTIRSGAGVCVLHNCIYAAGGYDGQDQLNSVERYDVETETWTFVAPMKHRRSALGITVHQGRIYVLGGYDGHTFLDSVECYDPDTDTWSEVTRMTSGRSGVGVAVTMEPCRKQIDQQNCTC

[3] = molecular target: T1, Keap1 (tag-free); assay: Assay-1: inhibitor dose response, full length Keap1; type: binding; details: 5 nM Keap1, 3.5 nM each KL9 tracer, 4 h
[4] = molecular target: HDAC1-HT in HEK293T cells (Homo sapiens, UniProt Q13547); type: cell-based; details: Cora-2-Halo labeled HEK293T cells expressing HDAC1-HT, 4 h at 37°C
HDAC1-HT in HEK293T cells, sequence (Q13547 whole entry): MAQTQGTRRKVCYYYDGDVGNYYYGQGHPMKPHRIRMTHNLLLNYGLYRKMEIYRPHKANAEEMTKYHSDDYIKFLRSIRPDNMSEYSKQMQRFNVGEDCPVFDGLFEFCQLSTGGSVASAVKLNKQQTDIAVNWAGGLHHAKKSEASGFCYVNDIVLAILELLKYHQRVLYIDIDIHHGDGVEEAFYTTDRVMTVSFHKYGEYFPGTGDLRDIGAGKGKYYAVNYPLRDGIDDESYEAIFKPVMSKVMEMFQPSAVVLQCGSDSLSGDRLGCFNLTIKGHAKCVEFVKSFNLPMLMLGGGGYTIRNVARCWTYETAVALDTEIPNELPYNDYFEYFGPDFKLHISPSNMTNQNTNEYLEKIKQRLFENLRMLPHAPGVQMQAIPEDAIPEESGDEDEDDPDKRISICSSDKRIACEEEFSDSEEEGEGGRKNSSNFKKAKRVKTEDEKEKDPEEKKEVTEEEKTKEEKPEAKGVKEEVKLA

wildtype Keap1 (tag-free), sequence (Q14145 whole entry): as the sequence (Q14145 whole entry) above

Structure (SMILES)	affinity in Assay-1 (no appreciable affinity below) [3]	activity in Assay-1 (in words) [3]	also measured
CC1(C)CC[C@]2(C(=O)NCCCOCCOCCOCCCNC(=S)Nc3ccc(-c4c5ccc(=O)cc-5oc5cc(O)ccc45)c(C(=O)O)c3)CC[C@]3(C)[C@H](C(=O)C=C4[C@@]5(C)C=C(C#N)C(=O)C(C)(C)[C@@H]5CC[C@]43C)[C@@H]2C1 [CDDO-FITC]			Kd [1]: 164 ± 37.1 nM
Cc1sc2c(c1C)C(c1ccc(Cl)cc1)=NC(CC(=O)NCCCOCCOCCOCCCNC(=O)[C@]13CCC(C)(C)C[C@H]1[C@H]1C(=O)C=C4[C@@]5(C)C=C(C#N)C(=O)C(C)(C)[C@@H]5CC[C@@]4(C)[C@]1(C)CC3)c1nnc(C)n1-2 (some centres unmarked) [CDDO-JQ1]	> 100 µM		fold less potent than CDDO ([2]; Assay-2): > 500 fold
COC(=O)[C@]12CCC(C)(C)C[C@H]1[C@H]1C(=O)C=C3[C@@]4(C)C=C(C#N)C(=O)C(C)(C)[C@@H]4CC[C@@]3(C)[C@]1(C)CC2 [CDDO-Me, bardoxolone methyl]	> 100 µM		activity in Assay-2 (in words) [2]: most potent competitors of CDDO-FITC
CC1(C)CC[C@]2(C(=O)O)CC[C@]3(C)[C@H](C(=O)C=C4[C@@]5(C)C=C(C#N)C(=O)C(C)(C)[C@@H]5CC[C@]43C)[C@@H]2C1 [CDDO]		micromolar activity	activity in Assay-2 (in words) [2]: most potent competitors of CDDO-FITC
COC1=CC(=O)C(O)=C/C1=C\C=C\c1ccccc1 [OBT, obtusaquinone]		micromolar activity	
O=C(CCCCCCC(=O)Nc1ccc(CNC(=O)c2ccc(C(=O)O)c(C3=c4cc5c6c(c4Oc4c3cc3c7c4CCCN7CCCC3)CCC[N+]=6CCCC5)c2)cc1)NO [SAHA-NCT]			TR-FRET signal in live cells / cell permeability (in words) [4]: specific and ligand concentration-dependent TR-FRET signal
CC1=C(O)C(=O)C=C2C1=CC=C1[C@@]2(C)CC[C@@]2(C)[C@@H]3C[C@](C)(C(=O)O)CC[C@]3(C)CC[C@]12C [celastrol]		micromolar activity	
COC(=O)/C=C/C(=O)OC [dimethyl fumarate]	> 100 µM		
